Experiment [1] addresses T1, Serine/threonine-protein kinase PLK4 (Homo sapiens, UniProt O00444).
T1 sequence (O00444 whole entry): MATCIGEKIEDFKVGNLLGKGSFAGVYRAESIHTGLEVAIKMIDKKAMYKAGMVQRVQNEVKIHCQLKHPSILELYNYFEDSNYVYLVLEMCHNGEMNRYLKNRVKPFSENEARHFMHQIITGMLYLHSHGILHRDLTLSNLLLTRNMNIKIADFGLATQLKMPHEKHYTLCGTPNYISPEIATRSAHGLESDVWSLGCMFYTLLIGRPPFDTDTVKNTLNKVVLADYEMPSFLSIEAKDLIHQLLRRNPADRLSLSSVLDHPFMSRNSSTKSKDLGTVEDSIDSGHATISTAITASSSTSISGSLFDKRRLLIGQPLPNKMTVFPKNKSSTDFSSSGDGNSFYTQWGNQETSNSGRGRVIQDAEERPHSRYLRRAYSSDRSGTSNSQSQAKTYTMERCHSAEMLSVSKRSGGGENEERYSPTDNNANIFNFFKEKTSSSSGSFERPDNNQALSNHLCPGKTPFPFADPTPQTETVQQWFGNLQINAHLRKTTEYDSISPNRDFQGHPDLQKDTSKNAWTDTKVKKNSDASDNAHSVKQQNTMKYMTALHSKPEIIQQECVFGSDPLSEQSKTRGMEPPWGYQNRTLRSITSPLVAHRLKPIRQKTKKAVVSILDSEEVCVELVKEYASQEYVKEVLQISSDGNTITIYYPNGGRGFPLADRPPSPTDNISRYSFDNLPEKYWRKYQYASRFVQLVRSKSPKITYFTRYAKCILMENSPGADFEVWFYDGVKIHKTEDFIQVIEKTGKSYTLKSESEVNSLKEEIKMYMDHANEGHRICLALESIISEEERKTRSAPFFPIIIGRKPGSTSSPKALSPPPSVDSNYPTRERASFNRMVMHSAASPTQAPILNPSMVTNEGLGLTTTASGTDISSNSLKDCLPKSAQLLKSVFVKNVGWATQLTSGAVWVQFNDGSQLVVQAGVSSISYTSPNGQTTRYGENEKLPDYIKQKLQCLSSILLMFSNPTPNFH
Briefly: Inhibition of PLK4 (unknown origin).

The nature of experiment [2]: Antiproliferative activity against human TNBC cells assessed as reduction in cell viability. Format: functional, cell-based. The note with it: Breast carcinoma cell.
Another experiment relates to MDA-MB-468. Kind of experiment: Antitumor activity against human MDA-MB-468 cells xenografted in nude mouse assessed as tumor growth inhibition at 20 mg/kg, po relative to control. Format: functional. The note with it: read-out: TGI.
The next experiment deals with MDA-MB-231. Kind of experiment: Antiproliferative activity against human MDA-MB-231 cells assessed as reduction in cell viability measured after 72 hrs by AlamarBlue assay. The class given is functional, cell-based. Conditions: MDA-MB-231, 72 h.
The next experiment has as its system HCT-116. Briefly: Antiproliferative activity against human HCT-116 cells assessed as reduction in cell viability measured after 72 hrs by AlamarBlue assay. Conditions: HCT-116, 72 h. The class given is functional, cell-based.
The test system of another experiment is U-87 MG. Briefly: Antiproliferative activity against human U-87 MG cells assessed as reduction in cell viability measured after 72 hrs by AlamarBlue assay. Format: functional, cell-based, U-87MG ATCC.
Another experiment deals with A2780. Kind of experiment: Antiproliferative activity against human A2780 cells assessed as reduction in cell viability measured after 72 hrs by AlamarBlue assay. Conditions: A2780, 72 h. Format: functional, cell-based.
The test system of another experiment is NCI-H1299. Kind of experiment: Antiproliferative activity against human NCI-H1299 cells assessed as reduction in cell viability measured after 72 hrs by AlamarBlue assay. Format: functional, cell-based. Conditions: NCI-H1299, 72 h.
Experiment [3] is described as follows: Selectivity ratio of Ki for PLK4 (unknown origin) to Ki for AURORA-A (unknown origin).
Experiment [4] addresses T1, Serine/threonine-protein kinase PLK4. Kind of experiment: Binding affinity to PLK4 (unknown origin) assessed as inhibition constant.
The target of experiment [5] is Serine/threonine-protein kinase PLK2 (Homo sapiens, UniProt Q9NYY3). Briefly: Inhibition of full length PLK2 (unknown origin).
Serine/threonine-protein kinase PLK2, sequence (Q9NYY3 whole entry): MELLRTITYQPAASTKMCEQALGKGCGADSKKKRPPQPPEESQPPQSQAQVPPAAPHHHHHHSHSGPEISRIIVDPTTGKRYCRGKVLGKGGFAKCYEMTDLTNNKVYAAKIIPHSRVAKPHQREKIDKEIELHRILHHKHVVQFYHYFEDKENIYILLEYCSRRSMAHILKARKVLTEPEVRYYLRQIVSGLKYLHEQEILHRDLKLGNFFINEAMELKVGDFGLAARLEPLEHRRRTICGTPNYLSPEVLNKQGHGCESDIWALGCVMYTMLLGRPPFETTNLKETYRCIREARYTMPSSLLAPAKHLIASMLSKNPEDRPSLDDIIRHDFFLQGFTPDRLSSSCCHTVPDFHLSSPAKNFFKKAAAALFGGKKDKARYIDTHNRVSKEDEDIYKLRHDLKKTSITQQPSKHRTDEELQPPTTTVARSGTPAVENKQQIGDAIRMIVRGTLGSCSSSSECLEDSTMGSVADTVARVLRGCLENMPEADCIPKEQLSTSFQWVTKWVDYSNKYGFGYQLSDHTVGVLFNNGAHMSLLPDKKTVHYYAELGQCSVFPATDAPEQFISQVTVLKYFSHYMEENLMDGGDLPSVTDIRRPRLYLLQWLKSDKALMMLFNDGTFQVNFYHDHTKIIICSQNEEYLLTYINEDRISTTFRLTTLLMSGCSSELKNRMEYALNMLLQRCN

`c1ccc(CNc2nc(Nc3cccc(N4CCOCC4)c3)nc3[nH]ncc23)cc1` returned an IC50 in [1] of 2100 nM.

As to `CC(=O)Nc1nccc(-c2ccc3c(/C=C/c4ccc(CN(C)C)cc4)n[nH]c3c2)n1`, the IC50 in experiment [2] is 60 nM. Moreover, the inhibition in vivo at 20 mg/kg in the experiment with MDA-MB-468 was 80%.

In the case of `COCCOc1ccc2cc1OCC(=O)N(C)CCCN(C)Cc1c[nH]c3ncnc(c13)N2`, the half-inhibitory concentration (IC50) in the experiment on MDA-MB-231, in the experiment on HCT-116, with U-87 MG, with A2780 and in the experiment with NCI-H1299 was 5 nM throughout.

`COc1c(Nc2cc(C)[nH]n2)nc(Sc2ccc(NC(=O)C3CC3)cc2)nc1N1CCN(C)CC1`: the Ratio Ki in experiment [3] is 15. Further, in experiment [4], the Ki was 15 nM.

For the compound `COc1c(Nc2cc(C)[nH]n2)nc(Sc2ccc(S(=O)(=O)Cc3cccc([N+](=O)[O-])c3F)cc2F)nc1N1CCCCC1`, the Ratio Ki in experiment [3] came out at 2100.

For the compound `Cn1c2ccccc2c2c3c(c4c5ccccc5n(CCC#N)c4c21)CNC3=O` [GO-6976], the IC50 in experiment [5] was above 19000 nM.

In experiment [1], `CNC(=O)c1ccccc1Nc1nc(Nc2ccc(S(C)(=O)=O)cc2)nc2[nH]ncc12` displayed an IC50 of 27 nM.

As for `CN(C)Cc1ccc(/C=C/c2n[nH]c3cc(-c4ccnc(N)n4)ccc23)cc1`, the 50% inhibitory concentration (IC50) in experiment [2] was determined as 60 nM; in experiment [1] it was 11.2 nM. In addition, in the experiment on MDA-MB-468, the inhibition in vivo at 20 mg/kg was 80%.

For the origin of these results see ChEMBL document CHEMBL5512608, “Therapeutic potential of targeting polo-like kinase 4” (Eur J Med Chem, 2024).
